{
  "source": "patent US11883436B2",
  "about": "“Method of preparing hematopoietic stem and progenitor cells for transplantation” (THE BOARD OF TRUSTEES OF THE UNIVERSITY OF ILLINOIS, priority 2020, dated 2024)",
  "key": {"[1]": {"system": "HSPC", "details": "literature comparison; cited from earlier work"}, "[2]": {"system": "CD34+ UCB cells", "assay": "CD34+ UCB cell xenotransplants into NSG mice after 2 hour ex vivo treatment; engraftment at 16 weeks", "format": "in vivo, human", "method": "CD34^+ UCB Cell Xenotransplants into NSG Mice. All NSG studies were carried out in accordance with, and approval of the Institutional Animal Care and Use Committee of Indiana University School of Medicine and the Guide for the Care and Use of Laboratory animals. Female NOD.Cg-Prkdc^scid I12rg^tm1Wj1/Szj (NSG) mice were obtained from the In Vivo Therapeutics Core of the Indiana University Simon Cancer Center. Animals were maintained under pathogen-free conditions and maintained on Irradiated Global 2018 (Uniprim 4,100 ppm; Harlan Laboratories) food pellets with ad libitum access to autoclaved, acidified tap water under a 12-hour light-dark cycle at 22° C. to 24° C. Mice were irradiated 4 hours prior to transplant (3.0 Gy of ^137Cesium γ-ray irradiation in an irradiator (J. L. Shepherd, Glendale, CA) at a dose rate of 88 cGy/min). CD34^+ UCB cells were thawed in 1% human serum albumin in STEMSPAN® media (STEMCELL Technologies) with human SCF 100 ng/ml and allowed to sit for 2 hours. Cells were then counted and plated at 0.5×10^6 cells/mL in STEMSPAN® media with 1% HSA. Cells were plated and treated with the following for 2 hours at 37° C.: 1, 10, or 50 μM (RS)-Baclofen (Tocris); 1, 10, or 50 μM 2-hydroxy-saclofen (Tocris); vehicle control (DMSO). Cells were harvested and immediately washed with PBS by centrifugation at 300×g for 10 minutes. Mice were transplanted with 20,000 cells each in 200 μL PBS (n=7 mice per group). PB and BM were harvested at 16 weeks post-transplant.\nAnalysis and Multi-Parametric Flow Cytometry Immunostaining of Xenotransplant Mice. For peripheral blood counts, blood was obtained through retro-orbital bleeding and transferred to EDTA-coated tubes. Peripheral blood cell numbers were determined using a Vet Abc Hematological analyzer (Scil Animal Care). For PB, BM, and spleen analysis of the target populations in xenotransplant mice, the cells were collected using a red blood cell lysis assay (eBioscience). The following primary conjugated monoclonal antibodies were used: anti-human CD34 PE (BD Pharmingen), anti-human AC133 APC (Miltenyi Biotec), anti-human CD19 PECy7 (BD Pharmingen), anti-human CD33 PerCP-Cy5.5 (BD Pharmingen), anti-human CD38 FITC (BD Pharmingen), anti-human CD45 APC-fluorescent dye sold under the tradename ALEXA FLUOR® (AF) 750 (Invitrogen), and the fixable amine reactive viability dye, LiveDead (Violet, Invitrogen).\nThe lysed PB, BM, and spleen cells were incubated with both human and murine Fc blocking reagent (Miltenyi Biotec) for 10 minutes on ice. Briefly, cells were incubated with the titered antibodies listed above for 30 minutes at 4° C., washed twice in PBS with 2% fetal bovine serum, fixed in 1% PFA (Tousimis), and analyzed within 24 hours on a BD Fortessa™ flow cytometer (BD, Franklin Lakes, NJ, USA) equipped with a 405 nm violet laser, 488 nm blue laser, 640 nm red laser, and 561 nm yellow-green laser. Approximately 100,000 events per sample were acquired uncompensated and exported as FCS 3.1 files, and analyzed utilizing FlowJo software, version 9.9.6 (Tree Star, Inc). “Fluorescent minus one” (FMO) gating controls were also used to ensure proper gating of positive events (Estes, et al. (2010) Curr. Prot. Cytometry 9:9.33.331-11; Estes, et al. (2010) Cytometry Part A 77:831-839).\nFindings from the mouse model indicated a role for Gabbr1 neuroreceptor in two aspects of hematopoiesis: proliferation of HSPCs and differentiation of B lineage cells. To evaluate functional conservation of Gabbr1 in hematopoiesis, and translational potentials of GABA signaling for HSPCs, CD34^+ UCB cells were exposed for 2 hours in vitro with increasing doses of either baclofen (Bac), a clinically approved GABA agonist (Bowery, et al. (1980) Nature 283(5742):92-94), or 2-hydroxy-saclofen (Sac), a selective antagonist of GABA B receptor (Kerr, et al. (1988) Neurosci. Lett. 92(1):92-96). […]"}, "[3]": {"system": "CD34+ UCB progenitors", "assay": "Human umbilical cord blood (UCB) colony forming assays", "format": "cell-based", "method": "Human Umbilical Cord Blood (UCB) Colony Forming Assays. Colony forming assays were carried out with either CD34^+ UCB progenitors treated as above prior to xenotransplant (i.e., input cells), or from xenotransplant recipient BM after 16 weeks (i.e., output cells). Input cells were plated at a density of 1×10^3 cells/dish. Output cells were plated at a density of 2×10^5 cells/dish. Cells were mixed with METHOCULT® M3434 culture medium (STEMCELL Technologies) and plated into each of three 35-mm gridded dishes. Dishes were incubated at 37° C. for 12 days and colonies were enumerated under a bright light microscope. A clonogenic colony contained at least 50 cells or greater. Findings from the mouse model indicated a role for Gabbr1 neuroreceptor in two aspects of hematopoiesis: proliferation of HSPCs and differentiation of B lineage cells. To evaluate functional conservation of Gabbr1 in hematopoiesis, and translational potentials of GABA signaling for HSPCs, CD34^+ UCB cells were exposed for 2 hours in vitro with increasing doses of either baclofen (Bac), a clinically approved GABA agonist (Bowery, et al. (1980) Nature 283(5742):92-94), or 2-hydroxy-saclofen (Sac), a selective antagonist of GABA B receptor (Kerr, et al. (1988) Neurosci. Lett. 92(1):92-96). […]"}, "[4]": {"system": "LSK progenitors", "assay": "OP9 co-culture B cell differentiation of LSK progenitors treated with Baclofen", "format": "cell-based, mouse", "method": "In vitro B Cell Differentiation Assay. LSK progenitors (4,000) from wild-type and Gabbr1^−/− mice were directly sorted onto pre-prepared OP9 stromal cells with 1 mL complete DMEM medium containing 10% FBS, 1 ng/mL IL-7, and 5 ng/mL Flt-3L. Three and six days later, 1 mL complete DMEM medium was added. One week after initial culture, all cells including OP9 cells were mechanically detached and filtered with a […] cell strainer. Cells were passaged onto fresh OP9 stromal cells with complete medium. Medium was changed every three days. At 14 days after initial culture, all cells were detached and stained with CD45.2, CD19, B220 and CD11b antibodies. The numbers of the different hematopoietic cell populations in each well were calculated by multiplying the total cell numbers from each well with the frequencies of each population. To assess the effects of Gabbr1 on myeloid cell differentiation from LSK cells, the DMEM medium containing 10% FBS, 1 ng/ml IL-7, 5 ng/ml Flt-3L, 5 ng/ml IL-6, 6 ng/ml IL-3 was used. Fourteen days after sorted LSK cells were cultured on OP9 cells, numbers of CD11b^+ and Gr-1^+ cells were measured via flow cytometry.\nIn addition, OP9 co-culture experiments were carried out to differentiate HSPCs in vitro toward B lineages. LSK progenitors (3,000-4,000 cells) were sorted from wild-type or Gabbr1 null mutants. These cells were plated on a stromal OP9 cells and induced to differentiate into B cells by supplementing media (a-MEM 25% HYCLONE™ FBS) with IL-7 (1 ng/mL) and Flt3L (5 ng/mL). […]\nTo test if OP9 co-cultures would respond to GABBR1 agonist during B cell differentiation, and allow downstream biochemical analysis, the co-cultures were treated with Baclofen. […] Cultures were harvested and analyzed for cell surface marker expression (B220^+ and GABBR1^+) by flow cytometry at day 12.\nAs part of this self-regulating direct feedback mechanism, it was also determined whether there were any changes in GABBR1 surface expression in B lineages using flow cytometry. […]"}, "[5]": {"system": "GAD1/2f/f; CD79a/Mb1-Cre HSPCs (LSK)", "assay": "OP9 co-culture B cell differentiation of GAD1/2-deleted HSPCs with Baclofen in the media", "format": "cell-based, mouse", "details": "media supplemented with agonist, 12 days", "description": "To genetically block GABA production during B cell differentiation, the B lineage Cre lines CD79a/Mb1-Cre (19) and CD19-Cre were used (Rickert, et al. (1997) Nucl. Acids Res. 25(6):1317-8). These lines were crossed to a GAD1/2-floxed allele (Meng, et al. (2016) Proc. Natl. Acad. Sci. USA 113(13):3645-50) that also carries the Ai14 Lox-Stop-Lox-tdTomato Cre reporter (Madisen, et al. (2010) Nat. Neurosci. 13(1):133-40). At 6-8 weeks of age, BM were harvested and HSPCs (LSK) were sorted from GAD1/2^f/f; CD79a/Mb1-Cre (Cd79a KO) and GAD1/2^f/f-CD19-Cre (Cd19 KO) mice, as well as littermate Cre-negative controls (wild-type). GAD1/2^ff/ excised by Cre recombination will delete the only enzymes that can produce GABA. HSPCs were plated, 3,000-4,000 per well, in OP9 co-culture and were differentiated for 12 days. Cells were harvested from co-cultures for analysis by flow cytometry. The Ai14 Cre reporter was used to confirm that >95% of CD19^+ and/or B220^+ cells were tdTomato^+ as an indication of robust Cre excision in B lineages. Removal of GAD1/2 with CD79a/Mb1-Cre, but not CD19-Cre, led to dramatic reduction of absolute numbers of CD45^+ hematopoietic and B220^+ B lineages. The percentage of B220^+ cells decreased with GAD1/2 deletion by CD79a/Mb1-Cre."}, "[6]": {"details": "10 μM vs vehicle control, spleen of transplanted NSG mice"}},
  "data": [
    {"smiles": "CCCCC[C@H](O)/C=C/[C@H]1[C@H](O)CC(=O)[C@@H]1C/C=C\\CCCC(=O)O", "note": "[Prostaglandin E2]", "values": [
      {"measurement": "improvement in long-term engraftment", "setting": "[1]", "value": "2- to 4 fold"}
    ]},
    {"smiles": "NCC(O)(CS(=O)(=O)O)c1ccc(Cl)cc1", "note": "(stereo not drawn) [2-hydroxy-saclofen, 3-Amino-2-(4-chlorophenyl)-2-hydroxypropyl-sulfonic acid]", "values": [
      {"measurement": "engraftment (CD45+, CD34+) in NSG mice", "setting": "[2]; 1, 10 or 50 μM, 2 hours ex vivo, 16 weeks post-transplant", "value": "did not significantly increase engraftment at any of the tested doses"}
    ]},
    {"smiles": "NCC(CC(=O)O)c1ccc(Cl)cc1", "note": "(racemic) [Baclofen, 4-amino-3-(4-chorophenyl)-butanoic acid]", "values": [
      {"measurement": "in vitro CFUs of CD34+ UCB cells", "setting": "[3]; input cells, after 2-hour treatment", "value": "did not produce increased colonies"},
      {"measurement": "progenitor colonies (CFU) in BM of NSG mice transplanted with treated CD34+ UCB cells, vs controls", "setting": "[3]; output cells, 16 weeks post-transplantation", "value": "three-fold"},
      {"measurement": "progenitor engraftment CD38+, BM chimerism", "setting": "[2]; 10 μM vs vehicle control, BM, 16 weeks", "value": "significant increases"},
      {"measurement": "CD19+ B-cell reconstitution in spleen", "setting": "[2]; [6]", "value": "two-fold"},
      {"measurement": "overall engraftment in spleen", "setting": "[2]; [6]", "value": "significant increases in overall engraftment"},
      {"measurement": "progenitor-specific CD34+ BM engraftment in NSG mice", "setting": "[2]; 10 μM, 2 hours ex vivo, 16 weeks post-transplant", "value": "significant improvement"},
      {"measurement": "engraftment of hCD45+ cells in NSG recipients (BM)", "setting": "[2]; 10 μM, 2 hours ex vivo, 16 weeks post-transplant, vs vehicle control", "value": "dramatic enhancement over vehicle control"},
      {"measurement": "chimerism, fold higher (long-term engraftment)", "setting": "[2]; UCB CD34+ cells, 2 hour treatment, 10 μM dose, before transplantation", "value": "2- to 8 fold"},
      {"measurement": "BM chimerism and progenitor numbers in xenograft mouse model", "setting": "[2]; human CD34+ UCB HSPCs, up to 16 weeks", "value": "sustained increases"},
      {"measurement": "B cell production (B220+ cell number)", "setting": "[4]; 1 μM, day 12", "value": "reached significance in its stimulation of B cell production"},
      {"measurement": "B cell number across dose curve", "setting": "[4]; 0.5, 1.0, 5.0, 10 μM, day 12", "value": "trend of B cell number increase, then decrease"},
      {"measurement": "percentage of B220+ cells with surface expression of GABBR1+", "setting": "[4]; 0.5, 1, 5, 10 μM, day 12, flow cytometry", "value": "decreased"},
      {"measurement": "rescue of B cell differentiation defect due to GAD1/2 deletion", "setting": "[5]", "value": "partially rescues the defect"}
    ]}
  ]
}
